The values that follow come from the supplement of paper PMC10307832.

Common to all, as to test: relative viability (nuclei count vs DMSO), 5 days (fraction); higher = more cells survive
Compound in test [1]: C[C@]1(O)C[C@@H](c2nc(-c3ccc4ccc(-c5ccccc5)nc4c3)c3c(N)nccn32)C1 [Linsitinib] + Cc1cc(Nc2cc(N3CCN(C)CC3)nc(Sc3ccc(NC(=O)C4CC4)cc3)n2)n[nH]1 [Tozasertib] (partner 0.1 µM)
In a few lines:
(§1)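 Relative viability was taken as the ratio of nuclei in treated wells to nuclei in vehicle wells. Lung cancer cell lines in 1536-well plates received compounds by pin tool one day after seeding, either one drug alone or a fixed anchor-drug dose plus five library-drug doses (not always all listed) in √10 steps. Nuclei were counted on 4× images after 5 days of treatment, and values are medians of duplicate plates.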

Compound in test [2]: Cc1ccc(C(=O)N(CCCN)[C@@H](c2nc3cc(Cl)ccc3c(=O)n2Cc2ccccc2)C(C)C)cc1 [Ispinesib] + NC(=O)Nc1cc(-c2cccc(F)c2)sc1C(=O)N[C@H]1CCCNC1 [AZD7762] (partner 0.2 µM)
In outline:
as §1

Compound in test [3]: Cc1ccc(C(=O)N(CCCN)[C@@H](c2nc3cc(Cl)ccc3c(=O)n2Cc2ccccc2)C(C)C)cc1 [Ispinesib] + COc1cc2c(Oc3ccc(NC(=O)C4(C(=O)Nc5ccc(F)cc5)CC4)cc3F)ccnc2cc1OCCCN1CCOCC1 [Foretinib] (partner 0.25 µM)
In outline: as §1

Compound in test [4]: Cc1ccc(C(=O)N(CCCN)[C@@H](c2nc3cc(Cl)ccc3c(=O)n2Cc2ccccc2)C(C)C)cc1 [Ispinesib] + COc1cccc2cc(-c3nc([C@H]4CC[C@H](C(=O)O)CC4)n4ncnc(N)c34)[nH]c12 [OSI-027] (partner 0.5 µM)
In a few lines: as §1

Regarding NCI-H3122, the relative viability in test [1] (first compound 0.01 µM) stood at 0.458; in test [1] (first compound 0.03162 µM), 0.373; in test [1] (first compound 0.1 µM) it was 0.437; in test [1] (first compound 1 µM) it was 0.425; in test [2] (first compound 0.001 µM) it was 0.996; in test [2] (first compound 0.003162 µM), 0.982. Besides, the relative viability in test [2] (first compound 0.01 µM) turned out to be 1.15; in test [2] (first compound 0.03162 µM), 0.835; in test [2] (first compound 0.1 µM), 0.141; in test [3] (first compound 0.001 µM) it was 0.977; in test [3] (first compound 0.003162 µM) it was 1.01; in test [3] (first compound 0.01 µM), 1.08. In addition, the relative viability in test [3] (first compound 0.03162 µM) is 1.07; in test [3] (first compound 0.1 µM), 0.207; in test [4] (first compound 0.001 µM), 1.07; in test [4] (first compound 0.003162 µM), 1.38; in test [4] (first compound 0.01 µM), 1.06; in test [4] (first compound 0.03162 µM), 0.218. Moreover, the relative viability in test [4] (first compound 0.1 µM) was 0.14.

On to NCI-H838, for which the relative viability in test [1] (first compound 0.01 µM) stood at 0.277; in test [1] (first compound 0.03162 µM) it was 0.209; in test [1] (first compound 0.1 µM) it was 0.295; in test [1] (first compound 1 µM) it was 0.221; in test [2] (first compound 0.001 µM), 1.01; in test [2] (first compound 0.003162 µM), 0.804. The relative viability was 1.03 in test [2] (first compound 0.01 µM); 0.941 in test [2] (first compound 0.03162 µM); 0.714 in test [2] (first compound 0.1 µM); 1.07 in test [3] (first compound 0.001 µM); 1.14 in test [3] (first compound 0.003162 µM); 1.16 in test [3] (first compound 0.01 µM). Further, the relative viability in test [3] (first compound 0.03162 µM) worked out at 1; in test [3] (first compound 0.1 µM), 0.555; in test [4] (first compound 0.001 µM), 0.425; in test [4] (first compound 0.003162 µM), 0.359; in test [4] (first compound 0.01 µM), 0.539; in test [4] (first compound 0.03162 µM), 0.436. Moreover, in test [4] (first compound 0.1 µM), the relative viability was 0.197.

As for NCI-H1755, the relative viability is 0.585 in test [1] (first compound 0.01 µM); 0.587 in test [1] (first compound 0.03162 µM); 0.569 in test [1] (first compound 0.1 µM); 0.375 in test [1] (first compound 0.3162 µM); 0.514 in test [1] (first compound 1 µM); 0.489 in test [2] (first compound 0.001 µM). Moreover, the relative viability was 0.437 in test [2] (first compound 0.003162 µM); 0.433 in test [2] (first compound 0.01 µM); 0.408 in test [2] (first compound 0.03162 µM); 0.274 in test [2] (first compound 0.1 µM); 0.909 in test [3] (first compound 0.001 µM); 0.987 in test [3] (first compound 0.003162 µM). For the same cell line, the relative viability in test [3] (first compound 0.01 µM) is 1.01; in test [3] (first compound 0.03162 µM), 0.874; in test [3] (first compound 0.1 µM), 0.737; in test [4] (first compound 0.001 µM), 0.665; in test [4] (first compound 0.003162 µM), 0.791; in test [4] (first compound 0.01 µM) it was 0.859. The figures for the relative viability in test [4] (first compound 0.03162 µM) and in test [4] (first compound 0.1 µM) were 0.57 and 0.321, respectively.

Regarding HCC-15, the relative viability is 0.389 in test [1] (first compound 0.01 µM); 0.424 in test [1] (first compound 0.03162 µM); 0.404 in test [1] (first compound 0.1 µM); 0.319 in test [1] (first compound 1 µM); 1.26 in test [2] (first compound 0.001 µM); 1.33 in test [2] (first compound 0.003162 µM). The relative viability amounted to 1.34 in test [2] (first compound 0.01 µM); 0.902 in test [2] (first compound 0.03162 µM); 0.154 in test [2] (first compound 0.1 µM); 1.1 in test [3] (first compound 0.001 µM); 1.02 in test [3] (first compound 0.003162 µM); 1.1 in test [3] (first compound 0.01 µM). Further, the relative viability is 0.561 in test [3] (first compound 0.03162 µM); 0.188 in test [3] (first compound 0.1 µM); 0.773 in test [4] (first compound 0.001 µM); 0.715 in test [4] (first compound 0.003162 µM); 0.771 in test [4] (first compound 0.01 µM); 0.203 in test [4] (first compound 0.03162 µM). Also, the relative viability in test [4] (first compound 0.1 µM) came to 0.178.
